Five compounds from patent US8629154B2, “Substituted cycloalcano[e and d] pyrazolo [1,5-a]pyrimidines/antagonists of serotonin 5-HT6 receptors and methods for production and the use thereof” (priority 2008, dated 2014) can be followed below.

The target of assay [1] is T1, 5-HT6 receptor (Homo sapiens (Human), UniProt P50406). Briefly: Competitive radioligand binding ([3H] Lysergic acid diethylamide) to membranes of HeLa cells expressing 5-HT6 receptor. To be noted: 1.5 nM [3H] Lysergic acid diethylamide, HeLa cell membranes; for IC50: read-out: IC50 of serotonin 5-HT6 receptor inhibition in the setting of competitive binding; for Ki: read-out: Ki of serotonin 5-HT6 receptor inhibition in the setting of competitive binding. On the procedure: Activity determination of serotonin 5-HT6 receptor antagonists of the general formula 1 in the setting of competitive binding to serotonin 5-HT6 receptors.
Screening of disclosed compounds for their potential ability to interact with serotonin 5-HT6 receptors was carried out by method of radioligand binding. For this purpose membrane species were prepared from HeLa cells expressing recombinant human 5-HT6 receptor by means of their homogenization in glass homogenizer with subsequent separation of plasmatic membranes from cell nucli, mitochondria's and cell wreckages by differential centrifugation. Determination of tested compounds binding with 5-HT6 receptors was carried out according to the method described in [Monsma F J Jr, Shen Y, Ward R P, Hamblin M W and Sibley D R, Cloning and expression of a novel serotonin receptor with high affinity for tricyclic psychotropic drugs. Mol. Pharmacol. 43:320-327, 1993]. In the preferred embodiment membrane preparations were incubated with radioligand (1.5 nM [^3H] Lysergic acid diethylamide) without and in the presence of investigated compounds for […] at 37° C. in medium consisting of […], pH 7.4, 150 mM NaCl, 2 mM Ascorbic Acid, 0.001% BSA. After incubation the samples were filtered in vacuo on glass-microfiber filters G/F (Millipor, USA), filters were washed three times with cold solution of medium and radioactivity was measured by scintillation counter MicroBeta 340 (PerkinElmer, USA). Nonspecific binding which made up 30% of overall binding was determined by incubation of membrane preparations with radioligand in the presence of 5 μM Serotonin (5-HT). Methiothepin was used as positive control. Binding of tested compounds with the receptor was determined by their ability to displace the radioligand and expressed in percent of displacement. The percent of displacement was calculated according to the following equation:
[formula] wherein: TA—was overall radioactivity in presence of radioligand only, CA—was radioactivity in presence of radioligand and tested compound and NA—was radioactivity in presence of radioligand and Serotonin (5 μM).

The target of assay [2] is T1, 5-HT6 receptor. Briefly: Functional assay: inhibition of serotonin-induced intracellular cAMP (LANCE cAMP) in HEK 293 cells expressing 5-HT6 receptor. It counts as cell-based. The note with it: read-out: IC50 of serotonin 5-HT6 receptor inhibition in the setting of functional assay. On the procedure:
Determination of antagonistic activity of compounds of general formulas 1 and 2 towards 5-HT6 receptors. Compounds of general formulas 1 and 2 were tested for their ability to prevent 5-HT6 receptors activation by serotonin. HEK 293 cells (cells of human embryo's kidney) with artificially expressed 5-HT6 receptor, activation of which by serotonin leads to increasing the concentration of intracellular cAMP were used. The content of intracellular cAMP was determined using reagent kit LANCE cAMP (PerkinElmer) according to the method described by the manufacturer of the kit [http://las.perkinelmer.com/content/Manuals/MAN_LANCEcAMP384KitUser.pdf].
Effectiveness of compounds was estimated by their ability to reduce the content of intracellular cAMP induced by serotonin.

The test system of assay [3] is mice. Put plainly: Mice Behavior in the Elevated Plus Maze. It is filed as in vivo. The source says:
Anxiolytic (tranquilizing) action of compounds of general formulas 1 and 2 in the test “Mice Behavior in the Elevated Plus Maze”. The length of each arm in the labyrinth is 30 cm, the width is 5 cm, and the height of walls is 15 cm. Two opposite arms are closed from sides and end faces by transparent walls, the other two arms are lit and opened. A mouse was placed in the center of maze and for the next five minutes the number of entries the opened and closed arms and the time spent in each type of arms was registered. […] The animals usually avoid the open arms (the preference index is between 0.2 and 0.3). Compounds with tranquilizing action increase this index up to 0.5-0.6 or even more and reduce the number of defecations without changing the overall motion activity of the mice (the total number of their entries to the arms).

Assay [4] has as its system mice. Briefly: Passive Avoidance of mice in the Shuttle Chamber, memory disturbed by MK-801. It is filed as in vivo. To be noted: MK-801 0.1 mg/kg, 30 minutes before training. On the procedure:
A shuttle chamber (Ugo Basile, Italy) consisted of two sections was used. The walls of one section were opaque while the second section had transparent cover. The sections were connected through a hole which could be overlapped by vertical door. The floor was made of transverse metal bars on which DC current impulses could be fed. Experiments were carried out in aged male mice of BALB/c line weighing 20-24 grams.
On the first day of experiment 30 minutes before training mice were injected […] with physiological solutions of Scopolamine (0.3 mg/kg) or Scopolamine in combination with active ingredient 1.2(3). Each group consisted of at least 8 animals. Animals were placed in light section, and latent period of the first entry into dark chamber was registered. Then vertical door was closed and the animal was punished by 0.6 mA DC current for 3 seconds. After that the animal was returned to its living cage. In 22-24 hours the same animal was placed again in light section of the shuttle chamber and the latent period of its first entry into the dark section, the total time of its stay in the light section and the number of entries into the dark section was registered. Each monitoring lasted for 5 minutes.
The experiment was carried out as in example 7. […]

Assay [5] deals with aged male mice of BALB/c line. Briefly: Passive Avoidance of mice in the Shuttle Chamber, memory disturbed by Scopolamine. It counts as in vivo. The note with it: Scopolamine 0.3 mg/kg, 30 minutes before training. On the procedure: A shuttle chamber (Ugo Basile, Italy) consisted of two sections was used. The walls of one section were opaque while the second section had transparent cover. The sections were connected through a hole which could be overlapped by vertical door. The floor was made of transverse metal bars on which DC current impulses could be fed. Experiments were carried out in aged male mice of BALB/c line weighing 20-24 grams. On the first day of experiment 30 minutes before training mice were injected […] with physiological solutions of Scopolamine (0.3 mg/kg) or Scopolamine in combination with active ingredient 1.2(3). Each group consisted of at least 8 animals. Animals were placed in light section, and latent period of the first entry into dark chamber was registered. Then vertical door was closed and the animal was punished by 0.6 mA DC current for 3 seconds. After that the animal was returned to its living cage. In 22-24 hours the same animal was placed again in light section of the shuttle chamber and the latent period of its first entry into the dark section, the total time of its stay in the light section and the number of entries into the dark section was registered. Each monitoring lasted for 5 minutes. The experiment was carried out during the day time in isolated laboratory using white noise at level of about 70 decibel above human hearing threshold. […]

T1 sequence (P50406 whole entry): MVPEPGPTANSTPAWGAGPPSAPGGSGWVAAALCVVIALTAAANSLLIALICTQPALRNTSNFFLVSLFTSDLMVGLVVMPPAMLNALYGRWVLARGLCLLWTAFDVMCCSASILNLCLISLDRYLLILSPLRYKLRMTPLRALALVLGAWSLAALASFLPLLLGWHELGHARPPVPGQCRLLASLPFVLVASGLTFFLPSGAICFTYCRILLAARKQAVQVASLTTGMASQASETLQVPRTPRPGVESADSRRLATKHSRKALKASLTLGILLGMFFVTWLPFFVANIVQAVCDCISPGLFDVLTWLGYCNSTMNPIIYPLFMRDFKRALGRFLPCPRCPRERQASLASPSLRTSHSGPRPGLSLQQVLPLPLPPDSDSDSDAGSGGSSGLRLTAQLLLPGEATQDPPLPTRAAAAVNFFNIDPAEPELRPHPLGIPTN

With `CSc1nn2c3c(cnc2c1S(=O)(=O)c1ccccc1)CCC3` [1.1(1), 2-methylsulfanyl-3-(phenylsulfonyl)-7,8-dihydro-6H-cyclopenta[e]pyrazolo[1,5-a]pyrimidine], in assay [1], the IC50 was 0.986 nM and the Ki turned out to be 0.458 nM. For the same compound, the IC50 in assay [2] was 27 nM.

Take `CSc1nn2c3c(cnc2c1S(=O)(=O)c1ccccc1)CCCC3` [1.2(1), 2-methylsulfanyl-3-(phenylsulfonyl)-6,7,8,9-tetrahydrocyclohexa[e]pyrazolo[1,5-a]pyrimidine]: in assay [1], the IC50 turned out to be 1.18 nM and the Ki was found to be 0.549 nM. In addition, the IC50 in assay [2] was 35 nM.

Consider `CSc1nn2c3c(c(C)nc2c1S(=O)(=O)c1ccccc1)CCCC3` [1.2(3), 5-methyl-2-methylsulfanyl-3-(phenylsulfonyl)-6,7,8,9-tetrahydrocyclohexa[e]pyrazolo[1,5-a]pyrimidine], for which the results for the half-inhibitory concentration (IC50) in assay [1] and in assay [2] were 0.948 nM and 32 nM, respectively. Also, the Ki in assay [1] came out at 0.44 nM. The “Anxiolytic (tranquilizing) action” value in assay [3] was “exhibits an anxiolytic (tranquilizing) action which is comparable with the activity of Buspirone and Lorasepam”. The “Nootropic action (enhancement of memory disturbed by MK-801)” value in assay [4] was “produce nootropic effect”. Besides, in assay [5], the “Nootropic action (enhancement of memory disturbed by Scopolamine)” value is “confirm nootropic action”.

For the compound `CSc1nn2cc3c(nc2c1S(=O)(=O)c1ccccc1)CCCC3` [2(1)], in assay [1], the IC50 is 17.2 nM and the Ki came to 7.97 nM. In addition, in assay [2], the IC50 came out at 479 nM.

Take `CSc1nn2c(C)c3c(nc2c1S(=O)(=O)c1ccccc1)CCCC3` [2(2)]: in assay [1], the IC50 amounted to 1.46 nM and the inhibition constant (Ki) was determined as 0.68 nM. For the same compound, the half-inhibitory concentration (IC50) in assay [2] is 7.8 nM.
